Data on eight molecules can be found in patent US20110230476A1, “PI3 KINASE INHIBITORS AND USES THEREOF” (AVILA THERAPEUTICS, INC., priority 2009, published 2011).

A word on the GI50: it is the concentration giving 50% growth inhibition. High values mean less potent growth inhibition, low ones more potent growth inhibition.

One test addresses T1, PI3Kγ (p120γ) (Homo sapiens, UniProt P48736).
T1 construct: purchased BPS Bioscience (San Diego, Calif.) or Millipore (Billerica, Mass.)
Briefly: HTRF assay, potency against active PI3Kγ. Type of test: biochemical. Conditions: [ATP]=50 μM, [di-C8-PIP2]=10 μM, 30 min pre-incubation, read-out: PI3Kγ Inhibition. In a few lines: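 End-point competition HTRF: enzyme (p110β/p85α 0.75 nM; p120γ 2-2.5 nM) with 10 μM di-C8-PIP2 pre-incubated 30 min at 25° C with compound, then 50 μM ATP added for 30-60 min at 25° C. Stopped, detected after 1 and 18 h; IC50 from variable-slope fit.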
For orientation: Time-resolved FRET reads energy transfer from a long-lived donor to a nearby acceptor.

The next test addresses T2, PI3Kβ (p110β/p85α) (Homo sapiens, UniProt P42338).
T2 construct: purchased BPS Bioscience (San Diego, Calif.) or Millipore (Billerica, Mass.)
Briefly: HTRF assay, potency against active PI3Kβ. Conditions: [ATP]=50 μM, [di-C8-PIP2]=10 μM, 30 min pre-incubation, read-out: PI3Kβ Inhibition. Type of test: biochemical. As to the method:
Homogeneous Time Resolved Fluorescence (HTRF) Assay Protocol for Potency Assessment Against the Active Forms of PI3Kα, PI3Kβ, and PI3Kγ
The mechanics of the assay platform are best described by the vendor (Millipore, Billerica, Mass.) on their website at the following URL: www.millipore.com/coa/tech1/74jt4z.
Briefly, Stop solution (Stop A, #33-007 and Stop B, #33-009; 3:1 ratio) and Detection Mix (from DMC, #33-015 with DMA, #33-011 and DMB, #33-013; 18:1:1 ratio) were prepared as recommended by the manufacturer about 2 hrs prior to use. […] Lipid kinase reactions were started with the addition of 5 μL of ATP solution, mixed for 15 sec on a rotary plate shaker and incubated for 30-60 minutes at 25° C. Next, reactions were stopped with a 5 μL addition of Stop solution immediately followed by a 5 μL volume of Detection Mix. […] At the conclusion of each assay, the HTRF ratio from fluorescence emission values for each well was calculated and % Inhibition determined from averaged controls wells (+/−PI3K enzyme). % Inhibition values for each compound were then plotted against inhibitor concentration to estimate IC50 from log [Inhibitor] vs Response, Variable Slope model in GraphPad Prism from GraphPad Software (San Diego, Calif.).

The target of another test is T3, PI3Kα (p110α/p85α) (Homo sapiens, UniProt P42336).
T3 construct: purchased BPS Bioscience (San Diego, Calif.) or Millipore (Billerica, Mass.)
Briefly: HTRF assay, potency against active PI3Kα. Type of test: biochemical. Conditions: for IC50: HTRF, [ATP]=50 μM, [di-C8-PIP2]=10 μM, 30 min pre-incubation, read-out: PI3Kα Inhibition. In a few lines:
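Active p110/p85α lipid kinase reactions were started with ATP and run 30-60 minutes at 25 °C, then stopped and developed with HTRF detection mix. HTRF ratio converted to % inhibition against ±enzyme controls; IC50 from log[inhibitor] vs response, variable slope.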

The subject of test [1] is Phospho-Akt(Ser473). As to the kind of experiment: Dose response in SKOV3 cells as determined by in-cell Western. It counts as cell-based. Conditions: Homo sapiens, SK-OV-3; SKOV3 cells, 1 hr; read-out: pAKT Inhibition in cell Western. Put shortly:
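SKOV3 cells treated with compound for 1 hr, then formaldehyde-fixed, permeabilised and stained overnight for phospho-Akt(Ser473) with anti-tubulin as a reference. Infrared secondary antibodies read at 680 and 800 nm channels by in-cell Western imaging.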

Test [2] has as its system Phospho-Akt(Ser473). As to the kind of experiment: Dose response in SKOV3 cells as determined by Western blot. It counts as cell-based. Conditions: Homo sapiens, SK-OV-3, 1 hr, Phospho-Akt normalized to total Akt, read-out: Immunoblot. Here is the method: Dose Response in SKOV3 Cells as Determined by Western Blot
SKOV3 cells were plated in SKOV3 Growth Media (DMEM supplemented with 10% FBS and pen/strep) at a density of 4×10^5 cells per well of 12 well plates. Twenty four hours later the media was removed and replaced with 1 ml media containing test compound and 0.1% DMSO and cells were returned to the incubator for 1 hr. At the end of the hour, the media was removed and the cells were washed with PBS, then lysed and scraped into 30 ul of Cell Extraction Buffer (Biosource, Camarillo, Calif.) plus Complete Protease Inhibitor and PhosStop Phosphatase Inhibitor (Roche, Indianapolis, Ind.).
Cell debris was spun down at 13,000×g for 1 minute and the supernatant was taken as the cell lysate. Protein concentration of the lysate was determined by BCA Assay (Pierce Biotechnology, Rockford, Ill.) and 50 ug of protein was loaded per well onto a NuPAGE Novex 4-12% Bis-Tris gel (Invitrogen, Carlsbad, Calif.) then transferred to Immobilon PVDF-FL (Millipore, Billerica, Mass.).
The blot was blocked in Odyssey Blocking Buffer (Li-Cor Biosciences, Lincoln, Nebr.) for 1 hr then incubated overnight at 4° C. with mouse anti-Akt (#2920) and rabbit anti-Phospho-Akt(Ser473) (#9271)(Cell Signaling Technology, Boston, Mass.) antibodies, both diluted 1:1000 in PBS/Odyssey Buffer (1:1)+0.1% Tween-20. The blots were washed 3 times 5 minutes in PBS+0.2% Tween-20 then incubated for 1 hr at room temperature with fluorescently labeled secondary antibodies (Li-Cor) diluted 1:10000 in PBS/Odyssey Buffer (1:1)+0.1% Tween-20.
The blots were washed 2 times for 5 minutes in PBS+0.2% Tween-20, once in distilled water, then scanned on an Odyssey machine (Li-Cor). Band intensity was determined using the Odyssey software and Phopho-Akt signal was normalized to total Akt within samples, then expressed as a percentage of the untreated Phospho-Akt signal.

In a further test the test system is SKOV3 cells. As to the kind of experiment: GI50 determinations in SKOV3 cells. Type of test: cell-based. Conditions: Homo sapiens, SK-OV-3; SKOV3 cells, 96 hours, Cell Titer Glo. Here is the method: GI50 Determinations in SKOV3 Cells
A standard curve ranging from 10,000 to 50,000 cells was set up in a separate plate and allowed to adhere to the plate for 4-6 hours, at which time the plate was developed using Cell Titer-Glow (Promega, Madison, Wis.) according to manufacturer's instructions.
The next morning, 3-fold compound dilutions ranging from 10,000 nM to 40 nM were prepared in Proliferation Media containing 1% DMSO. 20 ul of each dilution was added to the SKOV3 cells plated the previous day resulting in a dose response curve from 1000 nM to 4 nM. The cells were incubated for 96 hours and then developed with Cell Titer Glo.
The cell numbers at the end of the assay were determined using the standard curve generated at the start of the assay. Growth inhibition was calculated using the following formulas and GI50s were determined by plotting the % growth inhibition vs. Log compound concentration in GraphPad.
%growth=100×(T−T0)/(C−T0)
T=Cell Number at end of assay T0=Cell Number at start of assay (5000) C=Number of cells in DMSO controls at end of assay
%growth inhibition=100−%growth

In another test the target is PI3Kα (Homo sapiens, UniProt P42336). Briefly: Mass spectrometry of intact PI3Kα (Johns Hopkins), 3 hr incubation. Conditions: 10× fold excess of compound, MALDI. It counts as binding. The arrangement: Johns Hopkins. As to the method: Mass Spectrometry for PI3K
Intact PI3Kα (Johns Hopkins) was incubated for 3 hr at a 10× fold excess of II-a-45 or II-a-49 to protein. Aliquots (3 μL) of the samples were diluted with 10 μL of 0.1% TFA prior to micro C4 ZipTipping directly onto the MALDI target using Sinapinic acid as the desorption matrix (10 mg/ml in 0.1% TFA:Acetonitrile 50:50).

A further test deals with PI3K. Briefly: PI3K HCT116 cellular assay (Western blot). It counts as cell-based. Conditions: Homo sapiens, HCT-116, HCT116 colon cancer cells, 1 hour incubation, read-out: PI3K Inhibition. Here is the method:
PI3K HCT116 Cellular Assay
Selected compounds were assayed in HCT116 colon cancer cells. […] Cells were then washed with PBS, lysed and the protein lysates were then recovered and analyzed by Western blot.
In general terms: A western blot detects proteins with antibodies after separation by electrophoresis.

“Also recorded” adds a separate entry of the source.

PI3Kα, sequence (P42336 whole entry): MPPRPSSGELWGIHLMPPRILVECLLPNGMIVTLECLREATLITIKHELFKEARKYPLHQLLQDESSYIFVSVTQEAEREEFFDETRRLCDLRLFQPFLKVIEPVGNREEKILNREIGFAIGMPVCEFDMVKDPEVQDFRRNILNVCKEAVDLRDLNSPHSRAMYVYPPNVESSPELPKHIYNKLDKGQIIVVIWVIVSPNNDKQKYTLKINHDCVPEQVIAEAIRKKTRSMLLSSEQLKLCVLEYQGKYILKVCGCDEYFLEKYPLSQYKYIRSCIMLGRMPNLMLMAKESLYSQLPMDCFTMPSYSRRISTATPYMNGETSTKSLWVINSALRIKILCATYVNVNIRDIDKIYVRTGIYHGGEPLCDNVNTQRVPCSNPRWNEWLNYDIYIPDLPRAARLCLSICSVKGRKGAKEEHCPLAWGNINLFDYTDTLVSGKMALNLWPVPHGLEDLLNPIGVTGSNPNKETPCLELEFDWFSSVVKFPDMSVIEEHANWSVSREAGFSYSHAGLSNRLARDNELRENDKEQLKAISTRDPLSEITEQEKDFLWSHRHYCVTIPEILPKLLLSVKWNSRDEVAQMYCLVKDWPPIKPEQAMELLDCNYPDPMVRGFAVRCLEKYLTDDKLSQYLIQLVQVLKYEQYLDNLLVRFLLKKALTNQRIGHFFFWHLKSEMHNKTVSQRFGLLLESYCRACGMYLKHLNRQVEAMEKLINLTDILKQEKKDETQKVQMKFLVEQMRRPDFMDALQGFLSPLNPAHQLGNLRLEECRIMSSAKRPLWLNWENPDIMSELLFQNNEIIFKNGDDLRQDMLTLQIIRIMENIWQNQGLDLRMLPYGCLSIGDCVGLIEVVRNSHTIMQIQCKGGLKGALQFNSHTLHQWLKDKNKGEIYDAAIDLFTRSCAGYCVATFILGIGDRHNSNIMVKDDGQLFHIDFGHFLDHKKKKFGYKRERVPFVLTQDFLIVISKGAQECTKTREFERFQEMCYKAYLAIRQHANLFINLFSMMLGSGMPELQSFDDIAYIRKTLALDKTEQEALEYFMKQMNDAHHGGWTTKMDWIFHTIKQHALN
PI3Kα, sequence (P27986 322-600 partner limits assumed): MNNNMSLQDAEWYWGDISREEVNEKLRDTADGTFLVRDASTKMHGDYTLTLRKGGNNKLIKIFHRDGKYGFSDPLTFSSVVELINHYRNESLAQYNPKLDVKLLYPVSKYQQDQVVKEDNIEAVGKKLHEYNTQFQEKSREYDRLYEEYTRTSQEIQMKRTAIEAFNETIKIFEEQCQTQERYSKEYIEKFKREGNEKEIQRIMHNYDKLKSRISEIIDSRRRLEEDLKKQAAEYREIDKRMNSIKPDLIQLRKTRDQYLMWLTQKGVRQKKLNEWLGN
T3 sequence (P42336 whole entry): as the sequence (P42336 whole entry) above
T3 sequence (P27986 whole entry partner): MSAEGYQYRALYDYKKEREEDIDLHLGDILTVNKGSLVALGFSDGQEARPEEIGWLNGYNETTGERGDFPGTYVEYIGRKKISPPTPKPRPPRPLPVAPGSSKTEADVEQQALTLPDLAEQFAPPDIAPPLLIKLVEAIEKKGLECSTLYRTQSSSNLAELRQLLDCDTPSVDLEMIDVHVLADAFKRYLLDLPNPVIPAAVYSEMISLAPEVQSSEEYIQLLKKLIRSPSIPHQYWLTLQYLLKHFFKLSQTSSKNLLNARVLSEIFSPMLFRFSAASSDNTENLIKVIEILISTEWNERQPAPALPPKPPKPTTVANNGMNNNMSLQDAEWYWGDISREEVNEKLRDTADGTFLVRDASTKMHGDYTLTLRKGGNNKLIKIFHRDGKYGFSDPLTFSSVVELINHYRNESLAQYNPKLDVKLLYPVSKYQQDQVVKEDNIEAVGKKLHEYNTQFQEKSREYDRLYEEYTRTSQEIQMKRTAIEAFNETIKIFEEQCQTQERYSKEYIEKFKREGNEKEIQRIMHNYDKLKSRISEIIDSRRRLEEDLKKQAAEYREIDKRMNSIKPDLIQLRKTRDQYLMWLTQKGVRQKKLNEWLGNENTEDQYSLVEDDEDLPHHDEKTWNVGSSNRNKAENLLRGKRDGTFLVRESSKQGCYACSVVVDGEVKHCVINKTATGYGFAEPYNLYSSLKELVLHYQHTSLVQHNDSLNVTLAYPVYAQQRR
T2 sequence (P42338 whole entry): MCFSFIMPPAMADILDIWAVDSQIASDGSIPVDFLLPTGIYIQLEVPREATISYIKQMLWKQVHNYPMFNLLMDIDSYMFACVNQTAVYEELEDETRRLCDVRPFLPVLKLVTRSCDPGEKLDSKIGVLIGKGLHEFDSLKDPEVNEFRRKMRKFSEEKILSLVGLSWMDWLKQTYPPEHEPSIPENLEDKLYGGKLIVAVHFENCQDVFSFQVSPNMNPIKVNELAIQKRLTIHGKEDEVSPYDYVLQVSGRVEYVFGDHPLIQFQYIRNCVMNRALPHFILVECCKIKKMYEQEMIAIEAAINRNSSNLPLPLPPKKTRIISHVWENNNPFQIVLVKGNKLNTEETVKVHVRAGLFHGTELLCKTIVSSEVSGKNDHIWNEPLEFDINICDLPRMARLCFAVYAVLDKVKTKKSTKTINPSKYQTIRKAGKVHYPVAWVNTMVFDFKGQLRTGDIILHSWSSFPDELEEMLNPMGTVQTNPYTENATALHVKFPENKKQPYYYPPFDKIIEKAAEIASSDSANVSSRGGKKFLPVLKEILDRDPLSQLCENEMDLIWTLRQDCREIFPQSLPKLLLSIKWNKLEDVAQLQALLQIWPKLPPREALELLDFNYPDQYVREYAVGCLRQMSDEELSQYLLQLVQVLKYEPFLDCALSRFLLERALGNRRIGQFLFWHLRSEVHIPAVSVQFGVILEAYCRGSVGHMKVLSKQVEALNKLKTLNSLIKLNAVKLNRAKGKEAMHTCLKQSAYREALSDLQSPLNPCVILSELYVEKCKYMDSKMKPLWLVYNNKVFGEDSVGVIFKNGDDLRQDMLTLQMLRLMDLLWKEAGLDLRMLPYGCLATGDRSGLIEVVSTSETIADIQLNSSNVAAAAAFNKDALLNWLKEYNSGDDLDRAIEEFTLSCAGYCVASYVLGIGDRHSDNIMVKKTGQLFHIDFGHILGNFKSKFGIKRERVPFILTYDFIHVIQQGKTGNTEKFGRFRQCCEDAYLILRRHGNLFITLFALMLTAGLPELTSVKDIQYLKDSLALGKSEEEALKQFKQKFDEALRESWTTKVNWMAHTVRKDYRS
T2 sequence (P27986 whole entry partner): as the sequence (P27986 whole entry partner) above
T1 sequence (P48736 whole entry): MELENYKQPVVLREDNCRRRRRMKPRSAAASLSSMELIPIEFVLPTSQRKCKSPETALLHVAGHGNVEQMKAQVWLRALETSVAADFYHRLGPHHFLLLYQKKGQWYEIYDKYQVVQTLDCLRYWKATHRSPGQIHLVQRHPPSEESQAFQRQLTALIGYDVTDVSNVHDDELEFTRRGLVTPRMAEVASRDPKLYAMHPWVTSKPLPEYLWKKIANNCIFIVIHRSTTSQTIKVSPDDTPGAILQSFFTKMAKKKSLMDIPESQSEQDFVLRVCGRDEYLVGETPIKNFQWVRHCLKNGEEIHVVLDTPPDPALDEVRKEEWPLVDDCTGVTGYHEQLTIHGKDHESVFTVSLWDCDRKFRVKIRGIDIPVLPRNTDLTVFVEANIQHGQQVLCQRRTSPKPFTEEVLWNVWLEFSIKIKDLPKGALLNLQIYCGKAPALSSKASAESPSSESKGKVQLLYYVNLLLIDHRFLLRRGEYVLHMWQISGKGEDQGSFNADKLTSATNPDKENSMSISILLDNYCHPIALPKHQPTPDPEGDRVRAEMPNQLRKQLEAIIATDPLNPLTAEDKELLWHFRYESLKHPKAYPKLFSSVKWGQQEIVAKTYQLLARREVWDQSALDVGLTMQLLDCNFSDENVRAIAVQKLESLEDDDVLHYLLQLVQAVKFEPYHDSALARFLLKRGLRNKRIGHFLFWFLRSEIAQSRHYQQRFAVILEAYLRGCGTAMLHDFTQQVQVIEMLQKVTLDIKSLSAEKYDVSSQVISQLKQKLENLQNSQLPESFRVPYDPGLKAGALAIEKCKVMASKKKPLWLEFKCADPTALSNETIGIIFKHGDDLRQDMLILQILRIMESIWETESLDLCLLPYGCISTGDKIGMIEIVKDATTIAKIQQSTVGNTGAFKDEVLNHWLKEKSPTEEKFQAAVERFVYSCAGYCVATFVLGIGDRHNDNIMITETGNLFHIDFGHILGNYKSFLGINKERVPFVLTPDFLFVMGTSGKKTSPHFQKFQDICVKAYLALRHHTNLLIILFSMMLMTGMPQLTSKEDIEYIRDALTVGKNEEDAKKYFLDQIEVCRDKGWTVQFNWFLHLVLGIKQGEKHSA

As for `CC(C)=CC(=O)CCCC(=O)N1CC=C(c2cc3nc(-c4cnc(N)nc4)nc(C4=CCOCC4)c3s2)CC1` [II-a-169], the IC50 on PI3Kγ (p120γ) is 100 to 1000 nM; at PI3Kβ (p110β/p85α), above 1000 nM; at PI3Kα (p110α/p85α), 10 to 100 nM.

For `O=C(/C=C/c1ccccc1)CCC(=O)N1CCN(Cc2cc3nc(-c4cccc5[nH]ncc45)nc(N4CCOCC4)c3s2)CC1` [II-a-116, (E)-1-(4-((2-(1H-indazol-4-yl)-4-morpholinothieno[3,2-d]pyrimidin-6-yl)methyl)piperazin-1-yl)-6-phenylhex-5-ene-1,4-dione], the EC50 with Phospho-Akt(Ser473) [1] and with Phospho-Akt(Ser473) [2] was 10 to 100 nM throughout. In addition, the values for the IC50 at PI3Kβ (p110β/p85α) and at PI3Kα (p110α/p85α) were above 1000 nM and 10 to 100 nM, respectively.

On to `CC(C)=CC(=O)CCC(=O)N1CCN(C(=O)c2cc3nc(-c4cccc5[nH]ncc45)nc(N4CCOCC4)c3s2)CC1` [II-a-160, 1-(4-(2-(1H-indazol-4-yl)-4-morpholinothieno[3,2-d]pyrimidine-6-carbonyl)piperazin-1-yl)-6-methylhept-5-ene-1,4-dione], for which the GI50 in the test with SKOV3 cells was in the range of 10 to 100 nM. In addition, the IC50 was above 1000 nM at PI3Kβ (p110β/p85α) and 100 to 1000 nM at PI3Kα (p110α/p85α).

For `C/C=C/C(=O)CCC(=O)NCC(=O)N1CCN(Cc2cc3nc(-c4cccc5[nH]ncc45)nc(N4CCOCC4)c3s2)CC1` [II-a-16, (E)-N-(2-(4-((2-(1H-indazol-4-yl)-4-morpholinothieno[3,2-d]pyrimidin-6-yl)methyl)piperazin-1-yl)-2-oxoethyl)-4-oxohept-5-enamide], the IC50 on PI3Kγ (p120γ) is above 1000 nM; at PI3Kα (p110α/p85α), below 10 nM. In addition, the “covalent modification of PI3Kα” value at PI3Kα is reported as “completely modify”. Also, the “times more potent than its reversible counterpart II^R-a-16” value at PI3Kα (p110α/p85α) (PI3Kα HTRF assay) is recorded as “about 35 times”. Further, in the test with PI3K, the EC50 lay within 100 to 500 nM.

Turning to `C=C(C)C(=O)CCC(=O)NCC(=O)N1CCN(Cc2cc3nc(-c4cccc5[nH]ncc45)nc(N4CCOCC4)c3s2)CC1` [II-a-33, N-(2-(4-((2-(1H-indazol-4-yl)-4-morpholinothieno[3,2-d]pyrimidin-6-yl)methyl)piperazin-1-yl)-2-oxoethyl)-5-methyl-4-oxohex-5-enamide], the results for the IC50 at PI3Kγ (p120γ) and on PI3Kα (p110α/p85α) were above 1000 nM and 10 to 100 nM, respectively. Besides, the “covalent modification of PI3Kα” value at PI3Kα was “completely modify”. Besides, in the test on PI3K, the EC50 was in the range of 20 to 100 nM.

On to `C/C=C/C(=O)CCC(=O)NCC(=O)N1CCN(Cc2cc3nc(-c4cccc(O)c4)nc(N4CCOCC4)c3s2)CC1` [II-a-37, (E)-N-(2-(4-((2-(3-hydroxyphenyl)-4-morpholinothieno[3,2-d]pyrimidin-6-yl)methyl)piperazin-1-yl)-2-oxoethyl)-4-oxohept-5-enamide], for which the EC50 was in the range of 100 to 1000 nM with Phospho-Akt(Ser473) [1] and 20 to 100 nM with PI3K. The IC50 at PI3Kγ (p120γ) is above 1000 nM; on PI3Kα (p110α/p85α), below 10 nM. Also, the “covalent modification of PI3Kα” value at PI3Kα was “completely modify”.

Regarding `C/C=C/C(=O)CCC(=O)N1CCN(Cc2cc3nc(-c4cnc(N)nc4)nc(N4CCOCC4)c3s2)CC1` [II-a-112, (E)-1-(4-((2-(2-aminopyrimidin-5-yl)-4-morpholinothieno[3,2-d]pyrimidin-6-yl)methyl)piperazin-1-yl)hept-5-ene-1,4-dione], the EC50 in the test on Phospho-Akt(Ser473) [1] was at most 10 nM; in the test with Phospho-Akt(Ser473) [2], 10 to 100 nM. Also, the IC50 on PI3Kβ (p110β/p85α) lay within 100 to 1000 nM; at PI3Kα (p110α/p85α), 10 to 100 nM.

Consider `C/C=C/C(=O)CCC(=O)N1CC=C(c2cc3nc(-c4cccc(O)c4)nc(N4CCOCC4)c3s2)CC1` [II-a-45, (E)-1-(4-(2-(3-hydroxyphenyl)-4-morpholinothieno[3,2-d]pyrimidin-6-yl)-5,6-dihydropyridin-1(2H)-yl)hept-5-ene-1,4-dione], for which the EC50 in the test with Phospho-Akt(Ser473) [1] is at most 10 nM; with PI3K it was 100 to 500 nM. Moreover, the figures for the IC50 on PI3Kγ (p120γ) and at PI3Kα (p110α/p85α) were 100 to 1000 nM and below 10 nM, respectively. The “covalent modification of PI3Kα” value on PI3Kα is “covalent modification; also recorded: complete modification”. In addition, the “positive mass shift of PI3Kα” value at PI3Kα stood at 563 Da.
